Data as given in patent US20180318279A1 (priority 2015, published 2018).

What was measured:
injured hind paw = conditions: rat, in vivo; cited from earlier work
[1] = Skin permeation with human abdominal cadaver skin and absorption estimates drawn from it; conditions: assuming 3.8 fold increase in drug delivery
[2] = in vivo; cited from earlier work

SMILES	systemic effects following topical application (injured hind paw)	estimated increased penetration with damaged stratum corneum [1]	half-life, rapid phase one [2]	half-life, slow phase two [2]	antinociception (injured hind paw)
CN1CC[C@]23c4c5ccc(O)c4O[C@H]2[C@@H](O)C=C[C@H]3[C@H]1C5 [morphine]	revealed systemic effects				
CN(C)C(=O)C(CCN1CCC(O)(c2ccc(Cl)cc2)CC1)(c1ccccc1)c1ccccc1 [loperamide, 4-[4-(4-Chlorophenyl)-4-hydroxypiperidin-1-yl]-N,N-dimethyl-2,2-diphenylbutanamide]		0.057 mg	2.3 h	23 h	rapid dose-dependent antinociception
